Measurements as given in patent publication US8791050B2, “Herbicidal compositions” (priority 1998, dated 2014).

Columns and labels:
Assay type in all cases: in vivo
[1] = tested on: Amaranthus retroflexus (AMARE); assay: Herbicidal effect in rice, field trial, Amaranthus retroflexus
Experimental: (§1) The herbicidal efficacy of the active compounds or active compound mixtures was scored visually using the treated plots in comparison to untreated control plots. The damage and development of all above-ground parts of the plants were recorded. Scoring was carried out using a percentage scale (100% effect=all plants killed; 50% effect=50% of the plants and the green parts of the plants killed; 0% effect=no noticeable effect=like control plot). The scores of in each case 4 plots were averaged.
(§2) If the observed activity values already exceed the formal sum of the values for the trials with the individual applications, they also exceed the expected value according to Colby which is calculated using the following formula and which is likewise considered to be an indication of synergism (cf. S. R. Colby; in Weeds 15 (1967) pp. 20 to 22): E=A+B−(A·B/100)
(§3) Crop plants were grown outdoors on plots under natural outdoor conditions, and seeds or rhizome pieces of typical harmful plants were laid out or the natural weed growth was utilized. Treatment with the compositions according to the invention was carried out after the harmful plants had emerged and the crop plants were, generally, at the 2- to 4-leaf stage; in some cases (as stated), application of individual active compounds or active compound combinations was carried out pre-emergence (cf. Example 1) or as a sequential treatment partly pre-emergence and/or post-emergence.
(§4) After the application, for example 2, 4, 6 and 8 weeks after the application, the effect of the preparations was scored visually by comparison with untreated controls (cf. scoring in Example 1). In the field trial as well, the compositions according to the invention have synergistic herbicidal activity against a broad spectrum of economically important weed grasses and broad-leaved weeds. […] Moreover, the effects in essential phases of the scoring period were above the expected values according to Colby (cf. scoring in Example 1), also indicating synergism. […]

rice = assay: Selectivity: damage to rice, field trial
Experimental: The damage and development of all above-ground parts of the plants were recorded. […] The scores of in each case 4 plots were averaged.
Crop plants were grown outdoors on plots under natural outdoor conditions, and seeds or rhizome pieces of typical harmful plants were laid out or the natural weed growth was utilized.

[2] = tested on: Echinochloa colona (ECHCO); assay: Herbicidal effect in rice, field trial, Echinochloa colona; settings: post-emergence 2-4-leaf stage
Experimental: as §1, §2, §3
After the application, for example 2, 4, 6 and 8 weeks after the application, the effect of the preparations was scored visually by comparison with untreated controls (cf. scoring in Example 1). In the field trial as well, the compositions according to the invention have synergistic herbicidal activity against a broad spectrum of economically important weed grasses and broad-leaved weeds. […] Moreover, the effects in essential phases of the scoring period were above the expected values according to Colby (cf. scoring in Example 1), also indicating synergism. In contrast, the crop plants were, as a consequence of the treatments with the herbicidal compositions, damaged only to a small degree, if at all.

Cyperus iria (CYPIR) = assay: Herbicidal effect in rice, field trial, Cyperus iria; settings: Table 14 field trial, post-emergence 3-leaf stage, scoring 42 days after application
Experimental: as §1, §2, §3, §4

[3] = tested on: Sesbania exaltata (SEBEX); assay: Herbicidal effect in rice, field trial, Sesbania exaltata; settings: Table 1 field trial, post-emergence, scoring 7 days after application, 45 g of AS/ha
Experimental: as §1, §2
(§5) Crop plants were grown outdoors on plots under natural outdoor conditions, and seeds or rhizome pieces of typical harmful plants were laid out or the natural weed growth was utilized. […]
(§6) After the application, for example 2, 4, 6 and 8 weeks after the application, the effect of the preparations was scored visually by comparison with untreated controls (cf. scoring in Example 1). […]

[4] = tested on: Cyperus difformis (CYPDI); assay: Herbicidal effect in rice, field trial, Cyperus difformis; settings: Table 11 field trial, post-emergence 2-4-leaf stage, scoring 28 days after application, 45 g of AS/ha
Experimental: as §1, §2, §5, §6

Ipomoea spp (IPOSS) = assay: Herbicidal effect in rice, field trial, Ipomoea spp; settings: Table 11 field trial, post-emergence 2-4-leaf stage, scoring 28 days after application, 45 g of AS/ha
Experimental: as §1, §2, §5, §6

[5] = tested on: Ipomea hederaceae (IPOHE); assay: Herbicidal effect in rice, field trial, Ipomea hederaceae; settings: Table 8 field trial, post-emergence 2-4-leaf stage, scoring 28 days after application, 30 g of AS/ha
Experimental: as §1, §2, §5, §6

Eleusine indica (ELEIN) = assay: Herbicidal effect in rice, field trial, Eleusine indica; settings: Table 4 field trial, post-emergence 2-4-leaf stage, scoring 28 days after application
Experimental: as §1, §2, §3, §4

[6] = Table 9 field trial, post-emergence 2-4-leaf stage, scoring 28 days after application, 50 g of AS/ha

O=C(O)COc1nc(Cl)c(Cl)cc1Cl [(B3.1), triclopyr]
Herbicidal effect (in %) against AMARE [1, 6]: 66% | Damage (in %) to rice (rice; [6]): 18%

CCS(=O)(=O)Oc1ccc2c(c1)C(C)(C)CO2 [(B3.2), benfuresate]
Damage (in %) to rice (rice; in vivo): 0% | Herbicidal effect (in %) against ECHCO ([2]; Table 2 field trial, scoring 21 days after application, 400 g of AS/ha): 0%

CC1(C)CON(Cc2ccccc2Cl)C1=O [(B4.2), clomazone]
Damage (in %) to rice (rice; in vivo): 0% | Herbicidal effect (in %) against CYPIR (Cyperus iria (CYPIR); 300 g of AS/ha): 30%

COc1cc(OC)nc(Oc2cccc(Oc3nc(OC)cc(OC)n3)c2C(=O)[O-])n1.[Na+] [(B4.6), bispyribac-Na]
Herbicidal effect (%) against SEBEX [3]: 93% | Herbicidal effect (%) against AMARE ([1]; Table 1 field trial, post-emergence, scoring 7 days after application, 45 g of AS/ha): 93% | Herbicidal effect (in %) against CYPDI [4]: 75% | Herbicidal effect (in %) against IPOSS (Ipomoea spp (IPOSS)): 91%

CC(C)Oc1cc(-n2nc(C(C)(C)C)oc2=O)c(Cl)cc1Cl [(B4.8), oxadiazon]
Damage (in %) to rice (rice; in vivo): 0% | Herbicidal effect (in %) against CYPIR (Cyperus iria (CYPIR); 250 g of AS/ha): 75%

COc1cc(OC)nc(Oc2cccc(Oc3nc(OC)cc(OC)n3)c2C(=O)ON=C(c2ccccc2)c2ccccc2)n1 [(B4.25), pyribenzoxim]
Damage (in %) to rice (rice; Table 8 field trial, post-emergence 2-4-leaf stage, scoring 28 days after application, 30 g of AS/ha): 0% | Herbicidal effect (in %) against IPOHE [5]: 78%

CC1=C(c2ccccc2)C(=O)N(C(C)(C)c2cc(Cl)cc(Cl)c2)CO1 [(B4.26), oxaziclomefone]
Damage (in %) to rice (rice; Table 4 field trial, post-emergence 2-4-leaf stage, scoring 28 days after application, 30 g of AS/ha): 15% | Damage (in %) to rice (rice; Table 4 field trial, post-emergence 2-4-leaf stage, scoring 28 days after application, 60 g of AS/ha): 19% | Herbicidal effect (in %) against ELEIN (Eleusine indica (ELEIN); 30 g of AS/ha): 0% | Herbicidal effect (in %) against ELEIN (Eleusine indica (ELEIN); 60 g of AS/ha): 37%

oxadiargyl [(B4.9)]
Herbicidal effect (in %) against ECHCO ([2]; Table 3 field trial, scoring 28 days after application, 25 g of AS/ha): 33% | Herbicidal effect (in %) against ECHCO ([2]; Table 3 field trial, scoring 28 days after application, 50 g of AS/ha): 43% | Herbicidal effect (in %) against ECHCO ([2]; Table 3 field trial, scoring 28 days after application, 100 g of AS/ha): 48%
